# Values quoted from earlier work as cited in US6524619B2, “Dosage forms useful for modifying conditions and functions associated with hearing loss and/or tinnitus” (Chronorx, Inc., priority 2000, dated 2003).
# Like-named read-outs stand apart in the source and are kept apart here.
# What was measured:
# senile deafness = conditions: 1 microgram/day for 6 to 10 months, 12 patients suspected of abnormal bone metabolism
# [1] = tested on: blood viscosity and red cell membrane lipid peroxidation; conditions: 300 mg tid 3 months, Type 2 diabetes mellitus
# [2] = tested on: hydrogen peroxide-induced platelet aggregation
# [3] = not given; remark: listed apart in the source
# [4] = one small study
# [5] = levels up to 1 mg per day
# [6] = humans, 200 mg oral dose
# [7] = rats, oral (C14) LA
# [8] = tested on: bovine aortic endothelial cells (BAECs); conditions: LA added before AGE exposure
# [9] = tested on: outer cochlear hair cells; conditions: rat, postmortem
# GSHPx [10] = conditions: within 30 minutes, exogenously administered
# [11] = 3 mg ingested, within 20 min
# [12] = 80 mg orally
# NMDA receptor = conditions: rat, iontophoresis
# [13] = tested on: noise-induced permanent hearing threshold shifts (NIPTS); conditions: 167 mg elemental Mg^2+ daily, 2 months, 300 recruits
# [14] = in vivo
# RBC GSH system = conditions: selenium treatment
# peritoneal macrophages = conditions: mice
# tinnitus and SNHL = conditions: marginally Zn^2+ deficient elderly adults
# [15] = not given; remark: listed apart in the source
# red cell membrane = conditions: 300 mg tid after meals for 3 months
# GSHPx [16] = conditions: following supplementation
# [17] = not given; remark: listed apart in the source
# [18] = 100 mg oral
compound,measurement,setting,value
C=C1/C(=C\C=C2/CCC[C@]3(C)[C@@H]([C@H](C)CCCC(C)C)CC[C@@H]23)C[C@@H](O)C[C@@H]1O [1 alpha-(OH)D3],hearing improvement,senile deafness,hearing improvement in six ears (four patients)
"Cc1c(C)c2c(c(C)c1OC(=O)c1cccnc1)CC[C@@](C)(CCC[C@H](C)CCC[C@H](C)CCCC(C)C)O2 [Alpha-tocopherol nicotinate, alpha tocopherol nicotinate]",reduction of malondialdehyde (MDA) in red cell membrane,[1],0.17 ± 0.13 nmol/L
same,reduction of blood viscosity,[1]; gamma=1.5 s(−1),−2.23 +/−2.82
same,inhibitory effect upon hydrogen peroxide-induced platelet aggregation,[2],greater than that of either vitamin E alone or the simultaneous use of vitamin E and nicotinic acid
CC(C)(C)[C@]1(O)CC2OC(=O)CC23C(=O)OC2OC(=O)[C@H](O)C231 (some centres unmarked) [Bilobalide],"bioavailability coefficient (FAUC), mean",given orally during fasting,0.79(+/−0.3)
"COC1=C(OC)C(=O)C(C/C=C(\C)CC/C=C(\C)CC/C=C(\C)CC/C=C(\C)CC/C=C(\C)CC/C=C(\C)CC/C=C(\C)CC/C=C(\C)CC/C=C(\C)CCC=C(C)C)=C(C)C1=O [CoQ10, Coenzyme Q10]",increase of CoQ10 in plasma,[3]; granular preparations,168%
same,elevation of CoQ10 in plasma,[3]; supplemental oil-based capsules,178%
"[Cr] [Cr, Chromium]",average apparent net absorption of Cr,[4],1.8%
same,signs of toxicity,[5],no documented signs of toxicity
C[C@@H]1C(=O)O[C@H]2C[C@@]34[C@H]5C[C@@H](C(C)(C)C)[C@]36[C@@H](OC(=O)[C@@H]6O)O[C@@]4(C(=O)O5)[C@]21O [Ginkgolide A],"bioavailability coefficient (FAUC), mean",given orally during fasting,0.80 (+/−0.09)
CC1C(=O)OC2C(O)C34C5CC(C(C)(C)C)C36C(OC(=O)C6O)OC4(C(=O)O5)C12O (centres unmarked) [Ginkgolide B],"bioavailability coefficient (FAUC), mean","in vivo, po",0.88(+/−0.21)
"O=C(O)CCCCC1CCSS1 (centres unmarked) [LA, 1,2-dithiolane-3-pentanoic acid]",absolute bioavailability,[6],29.1+/−10.3%
same,plasma concentration-time curve area (FAUC) relative to intravenous administration,[7],66%
same,depletion of GSH and ascorbic acid,[8],completely prevents depletion of GSH and ascorbic acid
"COc1ccc2[nH]cc(CCNC(C)=O)c2c1 [Melatonin, N-acetyl-5-methoxytryptamine]",prolongation of hair cell activity after death compared to untreated animals,[9],up to 7 times
same,rise in GSHPx activity in the brain,GSHPx [10],2 fold
same,serum melatonin,[11],3561 ± 1201 pg/mL
same,absorption constant (ka),[12],1.72 h⁻¹
same,elimination constant (kel),[12],0.87 h⁻¹
same,time of peak serum melatonin after administration,[12],60 to 150 min
same,time peak serum melatonin remains stable,[12],approximately 1.5 hours
same,excitatory response of the cortical striatum,NMDA receptor,potent attenuation
"[Mg+2] [Mg^2+, Magnesium]",NIPTS frequency and severity,[13],significantly more frequent and more severe in the placebo group
same,excitatory response of the cortical striatum,NMDA receptor,potent attenuation
same,maximum intestinal bulk absorption,[14],8 mEq per meal
"O=C(O)c1cccnc1 [Nicotinic acid, reference compound]",inhibitory effect upon hydrogen peroxide-induced platelet aggregation,[2],no inhibitory effect
[Se] [Selenium],elevation of RBC GSHPx,RBC GSH system,64%
same,reduction in the RBC oxidized GSH content,RBC GSH system,39%
same,increase in GSH content,RBC GSH system; RBC,11%
same,increase in glutathione reductase activities,RBC GSH system; RBC,57%
same,increase in GSH content in peritoneal macrophages,peritoneal macrophages,36%
same,increase in GSHPx activity in peritoneal macrophages,peritoneal macrophages,30%
same,reduction in cell-mediated oxidation of LDL and aortic atherosclerotic lesions,peritoneal macrophages,46%
"[Zn+2] [Zn^2+, Zinc]",reduction of tinnitus and SNHL,tinnitus and SNHL,about one-third
same,increase of mean plasma Zn^+2 above pre-load levels,[15]; 11-fold increase in intake,37%
same,ingested Zn^+2 entering the plasma,[15]; in vivo,About 37%
same,time by which gastrointestinal absorption is essentially completed,[15]; in vivo,≤ 4 h
same,excitatory response of the cortical striatum,NMDA receptor,potent attenuation
"Cc1c(C)c2c(c(C)c1O)CC[C@@](C)(CCC[C@H](C)CCC[C@H](C)CCCC(C)C)O2 [alpha-tocopherol, D, alpha-tocopherol]",reduction of lipid peroxidation stress in red cell membrane (MDA),red cell membrane,0.17 ± 0.13 nmol
same,GSHPx activities,GSHPx [16],increase as much as twofold
"NC(=O)c1cccnc1 [standard nicotinamide, nicotinamide]",increase in the AUC,[17]; 10-fold increase in the dose,62 fold
same,AUC relative to Enduramide,[17]; higher doses,1.7 times
d5-CoQ10,time of second plasma peak after dosing,[18]; most of the subjects,24 h
same,mean plasma CoQ10 level peak,[18]; sixteen healthy male subjects,1.004+/−0.37 micrograms/ml
